Reference: patent US20240316038A1, “APOL1 INHIBITORS AND METHODS OF USE” (Maze Therapeutics, Inc., priority 2021, published 2024)

Legend:
APOL1 G2 [1] = target: T1, APOL1 G2 (Homo sapiens, UniProt O14791, DEL388-389); test: APOL1 calcium transport inhibition assay (GCaMP6f calcium influx, FLIPR) in HEK T-REx/GCaMP6f/APOL1 G2 K6.3 cells; format: cell-based; details: inhibition of APOL1-mediated calcium influx; geometric mean of at least 2 assay runs, † = single assay run (technical duplicate)
T1 construct: expressed in transfected cells; host or cells: HEK293 T-REx clonal lines: HEK T-REx/GCaMP6f/APOL1 G2 K6.3 in A1, HEK293/T-REx APOL1 G2/clone #2 in A2
T1 sequence (O14791 with tags, fused parts or gaps DEL388-389): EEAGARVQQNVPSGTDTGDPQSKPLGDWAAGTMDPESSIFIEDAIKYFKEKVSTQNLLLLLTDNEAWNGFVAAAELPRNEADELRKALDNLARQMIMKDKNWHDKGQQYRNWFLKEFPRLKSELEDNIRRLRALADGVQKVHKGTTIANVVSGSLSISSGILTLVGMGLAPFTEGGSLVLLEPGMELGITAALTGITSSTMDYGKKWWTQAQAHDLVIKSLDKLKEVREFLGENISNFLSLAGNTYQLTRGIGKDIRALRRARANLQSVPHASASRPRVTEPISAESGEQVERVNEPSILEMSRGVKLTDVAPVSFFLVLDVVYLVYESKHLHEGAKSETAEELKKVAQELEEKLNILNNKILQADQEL
Method: A HEK293 clonal cell line was generated to stably express GCaMP6f, a genetically encoded calcium indicator, and inducibly express APOL1 G2 (HEK T-REx/GCaMP6f/APOL1 G2 K6.3). Cells were maintained in the following standard complete medium: DMEM with 4.5 g/L glucose and sodium pyruvate (BioWhittaker, Lonza, BE12-614F), supplemented with 10% FBS Performance Plus (Gibco, 16000044), 1% penicillin-streptomycin (BioWhittaker, DE17-602E), 2 mM ultraglutamine-1 (BioWhittaker cat. BE 17-605/U1), 50 μg/mL Zeocin (InvivoGen, ant-zn), 2.5 μg/mL Blasticidin (InvivoGen, ant-bl-5), and 25 μg/mL Hygromycin (InvivoGen, ant-hg). Standard propagation conditions consisted of plating 9×10^6, 4×10^6, 2×10^6 cells in a T225 flasks to be processed after 2, 3, or 4 days, respectively.
A source plate was generated containing 20 serially diluted compounds in DMSO (duplicate 8-point dose response). Next, 0.8 μL of compounds were transferred from the source plate to a destination plate prefilled with 79.2 μL of Ca^2+ free Tyrode's buffer (130 mM NaCl, 5 mM KCl, 1 mM MgCl2, 5 mM NaHCO3, 20 mM HEPES at pH 7.4). The destination plate was placed on a plate shaker (5 seconds at 2000 rpm) to mix. […] All transfer and mixing steps were conducted with an CyBi®-Well dispenser.
Cells were split by gently washing with DPBS (Euroclone, ECB4004L), followed by a 5-minute incubation (humidified, 37° C. with 5% CO2) with trypsin-EDTA solution (Euroclone, ECB3052D). Detached cells were diluted with standard complete medium without selective agents, counted, and plated in a 384 MTP microplate (GR4332CPL, Twin Helix) (10,000 cells/well in 25 μl/well) using a MATRIX WellMate dispenser. Plates were placed into a humidified incubator (37° C. with 5% CO2) overnight. The following day, 20 μL of doxycycline (Sigma, D9891) at 20 ng/mL in standard complete medium was added to cells with a CyBi @Drop dispenser to induce APOL1 G2 expression. After a 6-hour incubation (humidified, 37° C. with 5% CO2), cells were washed 3 times with Ca^2+ free Tyrode's Buffer (130 mM NaCl, 5 mM KCl, 1 mM MgCl2, 5 mM NaHCO3, 20 mM HEPES at pH 7.4) using a BIOTEK Microplate washer, such that 10 μL of buffer remained in each well after the final wash. Assay plates were then stored at room temperature for 10 minutes. Next, 10 μL of diluted compounds were transferred to the assay plate from the 2× compound plate using a CyBi®-Well dispenser. Compound incubation was then carried out at room temperature for 10 minutes. The assay plate was transferred to the […] and 20 μL of 10 mM Ca^2+ (final concentration=5 mM) Tyrode's buffer was injected.
Table B1 below summarizes the data from this experiment. Unless otherwise specified, AC50 and values are reported as the geometric mean of at least 2 assay runs on separate days. Each run represents the average of a technical replicate, where each compound was assayed twice in the same plate. A superscript † symbol indicates a value from the average of a technical replicate from a single assay run, where each compound was assayed twice in the same plate.
The AC50 values in Table B1 below reflect the compound's ability to prevent calcium influx by inhibiting APOL1. […] Compounds in Table B1 are referred to by the corresponding Compound Number in Table 1, which is also referred to in the synthetic examples. When one or more of the numbered compounds are identified by stereochemistry (for example, (R)- or (S)—), the specific stereoisomer for which data is provided in Table B1 may be identified by the elution order of such compound as described in the synthetic examples. To illustrate, Compound 2 is the first-eluting enantiomer of step 4 of Example 1 and Compound 3 is the second-eluting enantiomer of step 4 of Example 1. Further, by way of illustration, Compound 27 is the first-eluting enantiomeric mixture in step 4 of Example 7 and Compound 28 is the second-eluting enantiomeric mixture in step 4 of Example 7. […]

APOL1 G2 [2] = target: T1, APOL1 G2; test: Rescue of HEK293 cell death caused by overexpression of APOL1 (CellTiter-Glo luminescence), HEK293/T-REx APOL1 G2/clone #2; format: cell-based; details: reversal of cell death caused by overexpression of APOL1; geometric mean of at least 2 assay runs, † = single assay run (technical duplicate)
Method: A HEK293 clonal cell line overexpressing APOL1 G2 (HEK293/T-REx APOL1 G2/clone #2) was maintained in 1×DMEM-GlutaMax (Gibco, 10569-010) media with 10% tetracycline-free FBS (Takara Bio USA, 631101), 5 μg/mL Blasticidin (Gibco, A1113903), and 100 μg/mL Zeocin (Invitrogen, R25001) in T75 flasks. In preparation for the assay, this media was aspirated and 2 mL of prewarmed TrypLE Express (Gibco, 12605-010) was added to a flask to detach cells. The flask was then incubated (humidified, 37° C. with 5% CO2) for 3-5 minutes. Afterwards, 8 mL of prewarmed cell assay media (lx DMEM-GlutaMax media with 10% tetracycline-free FBS) was added to the trypsinized cells. The suspension was gently mixed, and cells were counted using a Countess Cell Counting Chamber (Invitrogen). The suspension was diluted using cell assay media to generate a working stock solution (166,667 cells/mL). Using a MultiDrop Combi (Thermo Electron Corp), 30 μL (final cell density=5,000 cells/well) of the working stock solution was dispensed into each well of white 384-well assay ready plates (Nunc™, 164610) containing 6 ng/mL doxycycline, to induce APOL1 expression, and compound. All compounds were plated in a duplicate 8-point dilution series that consisted of 3-fold stepwise dilutions (0.5% DMSO final). Assay plates were incubated (humidified, 37° C. with 5% CO2) for 17 hours. After the incubation, the plates were equilibrated at room temperature for 1 hour. Next, 15 μl of CellTiter-Glo® reagent (Promega, G7570) was added to each well using a MultiDrop Combi. Plates were placed on an orbital shaker (500 rpm) for 5 minutes to induce cell lysis and then incubated at room temperature for 10 minutes. Luminescence was measured on an Envision plate reader. Collaborative Drug Discovery software was utilized for graphing data. Plots were generated using a four parameter logistic curve fit.
Table B2 below provides the results from this experiment. Unless otherwise specified, EC50 values are reported as the geometric mean of at least 2 assay runs on separate days. Each run represents the average of a technical replicate, where each compound was assayed twice in the same plate. A superscript t symbol indicates a value from the average of a technical replicate from a single assay run, where each compound was assayed twice in the same plate. Compounds in Table B2 are referred to by the corresponding Compound Number in Table 1, which is also referred to in the synthetic examples. When one or more of the numbered compounds are identified by stereochemistry (for example, (R)- or (S)—), the specific stereoisomer for which data is provided in Table B2 may be identified by the elution order of such compound as described in the synthetic examples. To illustrate, Compound 2 is the first-eluting enantiomer of step 4 of Example 1 and Compound 3 is the second-eluting enantiomer of step 4 of Example 1. Further, by way of illustration, Compound 27 is the first-eluting enantiomeric mixture in step 4 of Example 7 and Compound 28 is the second-eluting enantiomeric mixture in step 4 of Example 7. Then, Compound 27 is separated into Compound 29 (the first-eluting enantiomer) and Compound 30 (the second-eluting enantiomer) in Example 8, and Compound 28 is separated into Compound 31 (the first-eluting enantiomer) and Compound 32 (the second-eluting enantiomer) in Example 8. Absolute stereochemistry of such compounds may be identified by methods known in the art.
Rescue EC50 values reported in Table B2 below represent the half-maximal effective concentration for reversal of cell death caused by overexpression of APOL1.

Row | Compound | AC50 (APOL1 G2 [1]) [nM] | EC50 (APOL1 G2 [2]) [nM]
1 | COC(CN1CCC[C@@H](COc2ccc(S(C)(=O)=O)cc2)C1)c1cccc(Cl)c1 (single isomer, unassigned) [Compound 25, (R)-1-((R)-2-(3-chlorophenyl)-2-methoxyethyl)-3-((4-(methylsulfonyl)phenoxy)methyl)piperidine or (R)-1-((S)-2-(3-chlorophenyl)-2-methoxyethyl)-3-((4-(methylsulfonyl)phenoxy)methyl)piperidine] | 469 | 1010
2 | COC(CN1CCC[C@@H](COc2ccc(S(C)(=O)=O)cc2)C1)c1cccc(Cl)c1 (single isomer, unassigned) [Compound 26, (R)-1-((S)-2-(3-chlorophenyl)-2-methoxyethyl)-3-((4-(methylsulfonyl)phenoxy)methyl)piperidine or (R)-1-((R)-2-(3-chlorophenyl)-2-methoxyethyl)-3-((4-(methylsulfonyl)phenoxy)methyl)piperidine] | 1540 | 2240
3 | CS(=O)(=O)c1ccc(OCC2CN(CCc3cccc(Cl)c3)CCC2O)cc1 (single isomer, unassigned) [Compound 29, (3S,4R) or (3R,4R) or (3S,4S) or (3R,4S)-1-(3-chlorophenethyl)-3-((4-(methylsulfonyl)phenoxy)methyl)piperidin-4-ol] | 1980 | > 12200
4 | CS(=O)(=O)c1ccc(OCC2CN(CCc3cccc(Cl)c3)CCC2O)cc1 (single isomer, unassigned) [Compound 30, (3R,4R) or (3S,4S) or (3R,4S) or (3S,4R)-1-(3-chlorophenethyl)-3-((4-(methylsulfonyl)phenoxy)methyl)piperidin-4-ol] | 864 | 2410
5 | CS(=O)(=O)c1ccc(OCC2CN(CCc3cccc(Cl)c3)CCC2O)cc1 (single isomer, unassigned) [Compound 31, (3R,4R) or (3S,4S) or (3R,4S) or (3S,4R)-1-(3-chlorophen-ethyl)-3-((4-(methylsulf-onyl)phenoxy)methyl) piperidin-4-ol] | 1020 | > 7890
6 | CS(=O)(=O)c1ccc(OCC2CN(CCc3cccc(Cl)c3)CCC2O)cc1 (single isomer, unassigned) [Compound 32, (3S,4S) or (3R,4S) or (3S,4R) or (3R,4R)-1-(3-chlorophen-ethyl)-3-((4-(methylsulf-onyl)phenoxy)methyl) piperidin-4-ol] | 731 | 5770
7 | COC1CCN(CCc2cccc(Cl)c2)CC1COc1ccc(S(C)(=O)=O)cc1 (single isomer, unassigned) [Compound 33, rac-trans or cis-1-(3-chlorophenethyl)-4-methoxy-3-((4-(methylsulfonyl)phenoxy)methyl)piperidine] | 10800 | > 8670
8 | COC1CCN(CCc2cccc(Cl)c2)CC1COc1ccc(S(C)(=O)=O)cc1 (single isomer, unassigned) [Compound 34, rac-cis or trans-1-(3-chlorophenethyl)-4-methoxy-3-((4-(methylsulfonyl)phenoxy)methyl)piperidine] | 991 | 779
9 | COC1CCN(CCc2cccc(Cl)c2)CC1COc1ccc(S(C)(=O)=O)cc1 (single isomer, unassigned) [Compound 35, (3S,4R) or (3R,4R) or (3S,4S) or (3R,4S)-1-(3-chlorophenethyl)-4-methoxy-3-((4-(methylsulfonyl)phenoxy)methyl)piperidine] | 3780 | 6130
10 | COC1CCN(CCc2cccc(Cl)c2)CC1COc1ccc(S(C)(=O)=O)cc1 (single isomer, unassigned) [Compound 36, (3R,4R) or (3S,4S) or (3R,4S) or (3S,4R)-1-(3-chlorophenethyl)-4-methoxy-3-((4-(methylsulfonyl)phenoxy)methyl)piperidine] | 14200 | > 30000
